Common to all, as to type: physicochemical
The nature of data set [1]: Storage stability of crystals of compound D at 60° C. and 75% relative humidity (Test Example 2), crystal form by infrared absorption spectrum. To be noted: for change of crystal form on storage (summary in words) / stability on storage (summary in words): up to 8 weeks. As for the experimental part: Type-A crystals, type-B crystals or type-C crystals of compound D were packed in double plastic bags and stored under conditions of 60° C. temperature and 75% relative humidity. Sampling was performed over time, and the crystal form was determined by infrared absorption spectrum measurement.

Data set [2] can be described thus: Standing of crystals at room temperature. The text has this:
It is difficult to store type-A crystals of compound D for a long period.
Type-C crystals of compound D can be produced by, for example, leaving type-A crystals of compound D to stand at room temperature.
The standing time may be one week to one year.

The nature of data set [3]: Solubility in organic solvents. The text has this: Therefore, compound C is isolated according to any method such as neutralization crystallization in an aqueous solvent.

Consider `NC(=O)c1nc(Br)cnc1O` [Type-A crystals, 6-bromo-3-hydroxy-2-pyrazinecarboxamide], for which the “change of crystal form on storage (summary in words)” value (shortened to “change of crystal form on storage”) in data set [1] (60° C., 75% relative humidity) was “changed to type-C crystals”. Further, in data set [1] (double plastic bags, 60° C., 75% relative humidity, 8 weeks), the “crystal form after storage” value was “A + C(major)”. Further, the “change of crystal form when left to stand” value in data set [2] was “converted into type-C crystals”.

Consider `NC(=O)c1nc(Br)cnc1O` [Type-B crystals, 6-bromo-3-hydroxy-2-pyrazinecarboxamide], for which, in data set [1], the “storage stability (general statement)” value is on record as “excellent in storage stability”. Also, in data set [1] (60° C., 75% relative humidity), the “change of crystal form on storage” value is given as “not changed” and the “stability on storage (summary in words)” value was “stable”.

On to `NC(=O)c1nc(Br)cnc1O` [Type-C crystals, 6-bromo-3-hydroxy-2-pyrazinecarboxamide], for which, in data set [1] (60° C., 75% relative humidity), the “change of crystal form on storage” value is reported as “not changed” and the “stability on storage (summary in words)” value is recorded as “stable”.

With `NC(=O)c1nccnc1O` [compound C, 3-hydroxy-2-pyrazinecarboxamide], the “solubility in various organic solvents” value in data set [3] is “hardly soluble”.
